{"source": "patent US20050232983A1", "about": "“Transdermal patch” (INDEVUS PHARMACEUTICALS, INC., priority 2004, published 2005)", "assay": "serum dehydroepiandrosterone sulfate after topical application of the composition", "type": "in vivo", "conditions": "blood sample of recipient after application to skin", "description": "Delivery of dehydroepiandrosterone to the recipient's blood stream can be confirmed by analysis of a blood sample taken from the recipient."}
{"smiles": "C[C@]12CC[C@H](O)CC1=CC[C@@H]1[C@@H]2CC[C@]2(C)C(=O)CC[C@@H]12", "note": "[dehydroepiandrosterone]", "values": [{"measurement": "plateau of serum dehydroepiandrosterone sulfate relative to baseline", "value": "at least twice baseline levels"}, {"measurement": "time to increased serum levels of dehydroepiandrosterone sulfate", "value": "within twenty-four hours"}]}
